Experimental data from patent US12485147B2, “Method for producing cell mass including pituitary tissue, and cell mass thereof” (SUMITOMO CHEMICAL COMPANY, LIMITED, priority 2017, dated 2025).

How the values were obtained:
Format in all cases: cell-based
[1] = system: Human iPS cells (HC-6 #10 strain); assay: Cell mass from human iPS cells using BMP signal transduction pathway inhibiting substance (K02288) after addition of BMP4; bright field observation and immunostaining; details: K02288 300 nM added on day 3, 6 or 10; day 28
Procedure: Human iPS cells (HC-6 #10 strain, obtained from RIKEN) were cultured under feeder-free conditions according to the method described in Scientific Reports, 4, 3594 (2014). As the feeder-free medium, StemFit medium was used and, as the feeder-free scaffold, Laminin 511-E8 was used.
(§1) Specific maintenance culturing operation was performed in the same manner as in Example 1.
The thus-prepared subconfluent human iPS cells were washed with PBS, subjected to an enzyme treatment using Accumax, a serum-free medium for differentiation induction was added, and the cells were scraped from the surface of the culture dish by using a cell scraper and dispersed into single cells by pipetting. Thereafter, the aforementioned human ES cells dispersed into single cells were suspended in 100 μl of a serum-free medium at 9×10^3 cells per well of a non-cell-adhesive 96-well culture plate (PrimeSurface 96V-bottom plate, manufactured by SUMITOMO BAKELITE), and cultured in suspension under the conditions of 37° C., 5% CO2. […]

[2] = system: Human ES cells (KhES-1 strain); assay: Addition conditions of Sonic hedgehog signal transduction pathway activating substance (SAG) in production of cell mass containing pituitary tissue; bright field observation; details: day 28
Procedure: (§2) Human ES cells (KhES-1 strain, obtained from Kyoto University) were cultured under feeder-free conditions according to the method described in Scientific Reports, 4, 3594 (2014). As the feeder-free medium, StemFit medium was used and, as the feeder-free scaffold, Laminin 511-E8 was used.
as §1
(§3) Thereafter, suspension culturing in a 96 well plate was started under conditions similar to those in Example 1.
A serum-free medium not containing Y27632 and containing IWP-2, SB-431542, BMP4, and SAG was added at 100 μl per well on day 2 from the start of suspension culturing. BMP4 was added at 3 nM to the medium so that the final concentration in the well would be 1.5 nM. SAG was added at a final concentration of 100, 300, 500, 700 nM, 1, 2, 5 μM as a Sonic hedgehog signal transduction pathway activating substance. The condition without addition of a Sonic hedgehog signal transduction pathway activating substance during the suspension culturing period was taken as the control (-SAG condition, FIG. 5A).
A half amount of the medium was changed with a serum-free medium not containing Y27632 or BMP4, and containing IWP-2, SB-431542, each concentration of SAG on days 6, 10, 13, 17, 21, 24 from the start of suspension culturing. […]

[3] = system: Human ES cells (KhES-1 strain); assay: Effect of compound treatment before differentiation induction in production of cell mass containing pituitary tissue; bright field observation; details: day 28
Procedure: Human ES cells (KhES-1 strain) were cultured under feeder-free conditions according to the method described in Scientific Reports, 4, 3594 (2014). As the feeder-free medium, StemFit medium was used and, as the feeder-free scaffold, Laminin 511-E8 was used. Specific maintenance culturing operation was performed in the same manner as in Example 1. As a pre-treatment for differentiation induction of the cultured cells, cells under 4 conditions were maintenance cultured under conditions in which, condition in which nothing is simultaneously added with medium change with […] medium (Control), conditions in which 300 nM SAG alone is added (+300 nM SAG), conditions in which 5 μM SB-431542 alone is added (+5 μM SB-431542), and conditions in which SAG and SB431542 are simultaneously added (+SAG/SB) at 6 days after seeding. The next day of the above-mentioned treatment, human ES cells under 4 conditions that reached subconfluence were each subjected to differentiation induction by suspension culturing into a cell mass containing pituitary tissue according to the method described in Example 1. Bright field observation was performed under an inverted microscope on day 28 from the start of suspension culturing (FIGS. 6A-D).

[4] = system: Human ES cells (KhES-1 strain); assay: Timing of addition of BMP4 in production of cell mass from human ES cells; bright field observation; details: for structure of cell mass (bright field): observed day 10
Procedure: as §2, §1, §3
The condition without addition of a BMP signal transduction pathway activating substance during the suspension culturing period was taken as the control (-BMP4 condition, FIG. 3A). Thereafter, in the condition with the addition of a BMP signal transduction pathway activating substance on days 1, 2 or 3 from the start of suspension culturing (Day1-3+BMP4 condition, FIGS. 3B-D), a serum-free medium not containing Y27632 and containing IWP-2, SB-431542, BMP4 was added at 100 μl per well. BMP4 was added at 3 nM to the medium so that the final concentration in the well would be 1.5 nM. […] On day 10 from the start of suspension culturing, bright field observation was performed using an inverted microscope (manufactured by KEYENCE CORPORATION, BIOREVO) (FIGS. 3A-D).

[5] = system: Human ES cells (KhES-1 strain); assay: Addition concentration of BMP4 in production of cell mass containing pituitary tissue; bright field observation; details: 0.5 nM, 1.5 nM or 5 nM BMP4 added once on day 2; day 28
Procedure: as §2, §1, §3
A serum-free medium not containing Y27632 and containing IWP-2, SB-431542, BMP4, and SAG was added at 100 μl per well on day 2 from the start of suspension culturing. In this case, the amount of BMP4 to be added was under 4 conditions of 0.5 nM, 1.5 nM, 5 nM and no addition control. BMP4 was added at twice the concentration set for the medium so that the final concentration set for the well could be achieved. SAG was added at 4 μM to the medium so that the final concentration in the well would be 2 μM.
A half amount of the medium was changed with a serum-free medium not containing Y27632 or BMP4 and containing IWP-2, SB-431542 and SAG on days 6, 10, 13, 17, 21 and 24 from the start of suspension culturing.
Bright field observation was performed under an inverted microscope on day 28 from the start of suspension culturing (FIGS. 8A-D).

## COc1cc(-c2cc(-c3cccc(O)c3)cnc2N)cc(OC)c1OC [K02288, 3-[6-amino-5-(3,4,5-trimethoxyphenyl)-3-pyridinyl]-phenol]
[1]
  cell mass formation (bright field): a cell mass in which nonneural epithelial tissue surrounds neural tissue of the center part was formed

## CNC1CCC(N(Cc2cccc(-c3ccncc3)c2)C(=O)c2sc3ccccc3c2Cl)CC1 (stereo not shown) [SAG]
[2]; SAG 100 nM, 300 nM, 500 nM, 700 nM, 1 μM or 2 μM compared with 5 μM
  size of cell mass and formation of pituitary tissue on the surface: the size of the cell mass was larger and formation of pituitary tissue on the surface of cell mass was fine
[2]; SAG 100, 300, 500, 700 nM, 1, 2, 5 μM added on day 2, compared with no SAG
  structure of cell mass (bright field): cell masses with the nonneural epithelial tissue invaginated like Rathke's pouch on the surface and containing neuroepithelium-like tissue and mesenchymal cells in the inside
[3]; pre-treatment with 300 nM SAG alone vs no addition
  size of cell mass: cell mass became large
[3]; pre-treatment with 300 nM SAG alone
  presence of mesenchymal cell: the presence of a mesenchymal cell could also be confirmed

B1: BMP4: BMP protein; BMP signal transduction pathway activating substance (protein, UniProt P12644 293-408, looked up)
Bone morphogenetic protein 4: SPKHHSQRARKKNKNCRRHSLYVDFSDVGWNDWIVAPPGYQAFYCHGDCPFPLADHLNSTNHAIVQTLVNSVNSSIPKACCVPTELSAISMLYLDEYDKVVLKNYQEMVVEGCGCR
[4]; BMP4 1.5 nM
  effective timing of addition from start of suspension culturing for formation of cell mass coated with nonneural epithelial tissue: ≤ 72 h
[4]; BMP4 1.5 nM added on day 1 or day 2
  structure of cell mass (bright field): cell masses containing neural tissue and nonneural epithelial tissue and having a two-layer structure in which a center part with a neuroepithelium-like structure is covered with a nonneural epithelium-like layer were formed
[4]; BMP4 1.5 nM added on day 3 (and day 6)
  structure of cell mass (bright field): outer nonneural epithelium-like tissue was not formed
[4]; BMP4 added on day 2 compared with day 1, day 10
  size of embryoid body: larger than the embryoid body obtained under the condition with the addition of BMP4 on day 1
[5]
  nonneural epithelial structure on surface of cell mass: a nonneural epithelial structure was formed on the surface of the cell mass
